Results as given in ChEMBL document CHEMBL3243932, “Potential antiinflammatory compounds. 3. Compounds derived from acenaphthene and indan” (J Med Chem, 1979).
The source made the active and inactive calls. The calls are words filed in the database; no cut-off is given here.

How the values were obtained:
Rattus norvegicus [1] = assay: Antiinflammatory activity in po dosed rat assessed as reduction of carrageenan-induced foot edema administered as two doses; type: functional, organism-based
Rattus norvegicus [2] = assay: Antiinflammatory activity in rat assessed as reduction of carrageenan-induced foot edema at 25 mg/kg, po administered as two doses; type: functional
[3] = Acute toxicity in po dosed mouse; type: organism-based; details: in vivo
Rattus norvegicus [4] = assay: Antiinflammatory activity in rat assessed as reduction of carrageenan-induced foot edema at 100 mg/kg, po administered as two doses; type: functional
Rattus norvegicus [5] = assay: Antiinflammatory activity against rat adjuvant arthritis model assessed as reduction of swelling in non-injected foot at 100 mg/kg, po administered for 16 days; type: functional; details: 384 h
Rattus norvegicus [6] = assay: Antiinflammatory activity in rat assessed as reduction of carrageenan-induced foot edema at 50 mg/kg, po administered as two doses; type: functional
Rattus norvegicus [7] = assay: Antiinflammatory activity against rat adjuvant arthritis model assessed as reduction of swelling in non-injected foot at 50 mg/kg, po administered for 16 days; type: functional; details: 384 h
Rattus norvegicus [8] = assay: Antiinflammatory activity against rat adjuvant arthritis model assessed as reduction of swelling in non-injected foot at 33 mg/kg, po administered for 16 days; type: functional; details: 384 h
Rattus norvegicus [9] = assay: Antiinflammatory activity against rat adjuvant arthritis model assessed as reduction of swelling in non-injected foot at 1 mg/kg, po administered for 16 days; type: functional; details: 384 h

Structure (SMILES): O=C(O)Cc1ccc(C(CC(=O)O)c2ccccc2)cc1 (configuration not stated)
- inhibition (Rattus norvegicus [1]): inactive

Structure (SMILES): O=C(O)CCC1CC(c2ccccc2)c2ccccc21 (configuration not stated)
- inhibition in vivo at 25 mg/kg (Rattus norvegicus [2]): 0%
- LD50 [3]: 300 mg/kg

Structure (SMILES): C/C=C/C(=O)c1ccc(-c2ccccc2)cc1
- inhibition (Rattus norvegicus [1]): inactive

Structure (SMILES): O=C(O)Cc1ccc2c(c1)C(=O)/C(=C/c1ccc(Cl)cc1)C2
- inhibition in vivo at 100 mg/kg (Rattus norvegicus [4]): 0%
- LD50 [3]: 1600 mg/kg
- inhibition in vivo at 100 mg/kg (Rattus norvegicus [5]): 43%

Structure (SMILES): C[C@]12CCC(=O)C=C1CC[C@@H]1[C@@H]2[C@@H](O)C[C@@]2(C)[C@H]1CC[C@]2(O)C(=O)CO [HYDROCORTISONE]
- inhibition in vivo at 50 mg/kg (Rattus norvegicus [6]): 51%

Structure (SMILES): O=C(O)Cc1ccc2c(c1)C(=O)CC2
- inhibition in vivo at 100 mg/kg (Rattus norvegicus [4]): 0%
- LD50 [3]: 1600 mg/kg

Structure (SMILES): O=C(O)CC1CC(c2ccccc2)c2ccccc21 (configuration not stated)
- inhibition in vivo at 100 mg/kg (Rattus norvegicus [4]): 0%
- LD50 [3]: 1600 mg/kg

Structure (SMILES): O=C([O-])Cc1ccc2c(c1)CCC2C1CCCCC1.[Na+] (configuration not stated)
- inhibition in vivo at 100 mg/kg (Rattus norvegicus [4]): 28%
- LD50 [3]: 1200 mg/kg

Structure (SMILES): O=C(O)Cc1ccc2c(c1)C(=O)/C(=C/c1ccccc1)C2
- inhibition in vivo at 100 mg/kg (Rattus norvegicus [4]): 26%
- LD50 [3]: 1600 mg/kg
- inhibition in vivo at 100 mg/kg (Rattus norvegicus [5]): 25%

Structure (SMILES): O=C(O)Cc1ccc2c3c(cccc13)C(c1ccccc1)C2 (configuration not stated)
- inhibition in vivo at 100 mg/kg (Rattus norvegicus [4]): 53%
- LD50 [3]: 400 mg/kg
- inhibition in vivo at 100 mg/kg (Rattus norvegicus [5]): 0%

Structure (SMILES): CC1CCc2cc(-c3ccccc3)ccc21 (configuration not stated)
- inhibition in vivo at 100 mg/kg (Rattus norvegicus [4]): 35%
- LD50 [3]: 1600 mg/kg
- inhibition in vivo at 50 mg/kg (Rattus norvegicus [7]): 32%

Structure (SMILES): CCCCC1C(=O)N(c2ccccc2)N(c2ccccc2)C1=O [PHENYLBUTAZONE]
- inhibition in vivo at 33 mg/kg (Rattus norvegicus [8]): 42%
- inhibition in vivo at 50 mg/kg (Rattus norvegicus [6]): 30%
- inhibition in vivo at 50 mg/kg (Rattus norvegicus [7]): 50%

Structure (SMILES): O=C1CC(c2ccccc2)c2ccccc21 (configuration not stated)
- inhibition in vivo at 100 mg/kg (Rattus norvegicus [4]): 48%
- LD50 [3]: 1600 mg/kg
- inhibition in vivo at 100 mg/kg (Rattus norvegicus [5]): 36%

Structure (SMILES): O=C(O)Cc1ccc(C2CC(=O)c3ccccc32)cc1 (configuration not stated)
- inhibition in vivo at 100 mg/kg (Rattus norvegicus [4]): 36%
- LD50 [3]: 1600 mg/kg
- inhibition in vivo at 100 mg/kg (Rattus norvegicus [5]): 52%

Structure (SMILES): CC(C(=O)O)c1ccc2c(c1)C(=O)/C(=C/c1ccc(Cl)cc1)C2 (configuration not stated)
- inhibition in vivo at 100 mg/kg (Rattus norvegicus [5]): 53%

Structure (SMILES): O=C(O)Cc1ccc2c(c1)C(=O)CC2C1CCCCC1 (configuration not stated)
- inhibition in vivo at 100 mg/kg (Rattus norvegicus [4]): 8%
- LD50 [3]: 1200 mg/kg

Structure (SMILES): O=C(O)CCc1ccc(CC(=O)O)cc1
- inhibition (Rattus norvegicus [1]): inactive

Structure (SMILES): CC1CC(=O)c2cc(-c3ccccc3)ccc21 (configuration not stated)
- inhibition in vivo at 100 mg/kg (Rattus norvegicus [4]): 7%
- LD50 [3]: 1600 mg/kg

Structure (SMILES): COc1ccc2c(c1)c(CC(=O)O)c(C)n2C(=O)c1ccc(Cl)cc1 [INDOMETHACIN]
- inhibition in vivo at 1 mg/kg (Rattus norvegicus [9]): 57%

Structure (SMILES): CC(C(=O)O)c1ccc2c3c(cccc13)C(c1ccccc1)C2 (configuration not stated)
- inhibition in vivo at 100 mg/kg (Rattus norvegicus [4]): 44%
- LD50 [3]: 1600 mg/kg
- inhibition in vivo at 50 mg/kg (Rattus norvegicus [7]): 50%
